{"source": "patent US6100077A", "about": "“Isolation of a gene encoding diacylglycerol acyltransferase” (priority 1998, dated 2000)", "molecules": {"B1": {"name": "ARGP1: ACAT Related Gene Product 1, 488 amino acid protein (SEQ ID NO:1), proposed diacylglycerol acyltransferase (protein)", "chain": "MGDRGSSRRRRTGSRPSSHGGGGPAAAEEEVRDAAAGPDVGAAGDAPAPAPNKDGDAGVGSGHWELRCHRLQDSLFSSDSGFSNYRGILNWCVVMLILSNARLFLENLIKYGILVDPIQVVSLFLKDPHSWPAPCLVIAANVFAVAAFQVEKRLAVGALTEQAGLLLHVANLATILCFPAAVVLLVESITPVGSLLALMAHTILFLKLFSYRDVNSWCRRARAKAASAGKKASSAAAPHTVSYPDNLTYRDLYYFLFAPTLCYELNFPRSPRIRKRFLLRRILEMLFFTQLQVGLIQQWMVPTIQNSMKPFKDMDYSRIIERLLKLAVPNHLIWLIFFYWLFHSCLNAVAELMQFGDREFYRDWWNSESVTYFWQNWNIPVHKWCIRHFYKPMLRRGSSKWMARTGVFLASAFFHEYLVSVPLRMFRLWAFTGMMAQIPLAWFVGRFFQGNYGNAAVWLSLIIGQPIAVLMYVHDYYVLNYEAPAAEA"}, "B2": {"name": "ACAT1: human acyl Coenzyme A-cholesterol acyltransferase 1 expressed in yeast from cDNA (protein, UniProt P35610 1-550, looked up)", "Sterol O-acyltransferase 1": "MVGEEKMSLRNRLSKSRENPEEDEDQRNPAKESLETPSNGRIDIKQLIAKKIKLTAEAEELKPFFMKEVGSHFDDFVTNLIEKSASLDNGGCALTTFSVLEGEKNNHRAKDLRAPPEQGKIFIARRSLLDELLEVDHIRTIYHMFIALLILFILSTLVVDYIDEGRLVLEFSLLSYAFGKFPTVVWTWWIMFLSTFSVPYFLFQHWATGYSKSSHPLIRSLFHGFLFMIFQIGVLGFGPTYVVLAYTLPPASRFIIIFEQIRFVMKAHSFVRENVPRVLNSAKEKSSTVPIPTVNQYLYFLFAPTLIYRDSYPRNPTVRWGYVAMKFAQVFGCFFYVYYIFERLCAPLFRNIKQEPFSARVLVLCVFNSILPGVLILFLTFFAFLHCWLNAFAEMLRFGDRMFYKDWWNSTSYSNYYRTWNVVVHDWLYYYAYKDFLWFFSKRFKSAAMLAVFAVSAVVHEYALAVCLSFFYPVLFVLFMFFGMAFNFIVNDSRKKPIWNVLMWTSLFLGNGVLLCFYSQEWYARQHCPLKNPTFLDYVRPRSWTCRYVF"}}, "key": {"[1]": {"molecular_target": "T1, ACAT2 (ARGP2) (Homo sapiens, UniProt O75908)", "T1 construct": "The cDNA inserts of the longest ARGP1 and ARGP2 HepG2 library clones were removed by NotI, EcoRI digestion and ligated into the yeast expression vector; made in house; host or cells: Saccharomyces cerevisiae strain SCY059 (are1 are2 deleted), vector pRS426GP, GAL1/GAL10 promoter; microsomes", "T1 sequence (O75908 1-522)": "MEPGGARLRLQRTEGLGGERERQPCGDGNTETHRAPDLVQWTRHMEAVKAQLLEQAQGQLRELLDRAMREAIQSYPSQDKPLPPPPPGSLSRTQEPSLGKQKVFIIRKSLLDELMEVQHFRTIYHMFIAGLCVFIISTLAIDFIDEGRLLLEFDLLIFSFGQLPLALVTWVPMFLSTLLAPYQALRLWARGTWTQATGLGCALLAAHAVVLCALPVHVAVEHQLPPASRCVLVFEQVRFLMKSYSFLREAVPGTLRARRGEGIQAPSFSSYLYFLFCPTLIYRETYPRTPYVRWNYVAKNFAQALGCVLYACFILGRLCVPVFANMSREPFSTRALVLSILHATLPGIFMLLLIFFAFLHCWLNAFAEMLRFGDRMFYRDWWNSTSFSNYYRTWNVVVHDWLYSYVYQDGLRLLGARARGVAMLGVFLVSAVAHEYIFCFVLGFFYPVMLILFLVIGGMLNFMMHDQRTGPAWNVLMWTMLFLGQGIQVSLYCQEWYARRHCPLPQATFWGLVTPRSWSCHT", "assay": "In vitro assay of ACAT activity in yeast microsomes expressing ARGP2 (ACAT2) (inhibitor sensitivity)", "assay_type": "biochemical", "description": "(§1) In Vitro Assay of ACAT Activity in Yeast Microsomes. The cDNA inserts of the longest ARGP1 and ARGP2 HepG2 library clones were removed by NotI, EcoRI digestion and ligated into the yeast expression vector pRS426GP which utilizes the galactose inducible GAL1/GAL10 promoter. A cDNA corresponding to the coding region of human ACAT1 flanked by 5 bp of 5' untranslated region and 1 bp of 3' untranslated region, in pRS426GP was described previously (27). Yeast strain, SCY059 (MATα, ade2-1, can1-1, trp1-1, ura3-1, his3-11, 15, leu2-3, 112, metl4Δ14HpaI-SalI,are1ΔNA::HIS3, are2Δ::LEU2 ) with deletions in ARE1 and ARE2, the yeast homologs of human ACAT1 (4), was transformed with the above constructs or pRS426GP using lithium acetate and nucleic acid prototrophy selection (28). […] Culturing of the transformed yeast, induction of expression, microsome isolation, and sterol esterification assays were as described previously […]. In those experiments involving diethylpyrocarbonate (DEPC) to modify histidine residues, a preincubation with 100 μM DEPC was performed as described (2).\n(§2) Assay of ACAT activity in ACAT negative yeast transformed with ARGP1 and ARGP2. The ability of ARGP1 and ARGP2 to esterify sterols was assayed in a sterol esterification deficient yeast strain (SCY059) in which the endogenous ARE genes were deleted . […]"}, "[2]": {"molecular_target": "T2, human ACAT1 (Homo sapiens, UniProt P35610)", "T2 construct": "A cDNA corresponding to the coding region of human ACAT1 flanked by 5 bp of 5' untranslated region and 1 bp of 3' untranslated region; made in house; host or cells: Saccharomyces cerevisiae strain SCY059 (are1 are2 deleted), vector pRS426GP, GAL1/GAL10 promoter; microsomes", "T2 sequence (P35610 1-550)": "B2 Sterol O-acyltransferase 1", "assay": "In vitro assay of ACAT activity in yeast microsomes expressing human ACAT1 (inhibitor sensitivity)", "assay_type": "biochemical", "description": "as §1, §2"}, "[3]": {"test_system": "incorporation of [14C]-oleate into sterol ester", "assay": "In vitro microsomal ACAT activity of cDNAs expressed in ACAT-negative yeast SCY059", "description": "as §1\nAssay of ACAT activity in ACAT negative yeast transformed with ARGP1 and ARGP2. The ability of ARGP1 and ARGP2 to esterify sterols was assayed in a sterol esterification deficient yeast strain (SCY059) in which the endogenous ARE genes were deleted . Microsomes from these yeast, transformed with an expression vector harboring no insert or cDNA inserts for ARGP1, ARGP2, or human ACAT1 were assayed in vitro for the incorporation of [^14 C]-oleate into sterol ester."}}, "note": "“Also recorded” adds a separate entry of the source. Read-outs that look alike come from different tables or passages of the source.", "data": [{"molecule": "CCOC(=O)OC(=O)OCC", "note": "[DEPC, diethylpyrocarbonate]", "values": [{"measurement": "Degree of Inhibition", "setting": "[1]; 100 μm DEPC, ACAT2", "result": 33, "unit": "%"}, {"measurement": "Active site Modification: Plus DEPC (100 μm) (ACAT activity)", "setting": "[1]; ACAT2 microsomes preincubated with 100 μm DEPC, triplicate", "result": "30 +/- 1"}, {"measurement": "Degree of Inhibition", "setting": "[2]; 100 μm DEPC, ACAT1", "result": 80, "unit": "%"}, {"measurement": "Active site Modification: Plus DEPC (100 μm) (ACAT activity)", "setting": "[2]; ACAT1 microsomes preincubated with 100 μm DEPC, triplicate", "result": "69 +/- 4"}]}, {"molecule": "B1", "values": [{"measurement": "ACAT activity (sterol esterification), result in words", "setting": "[3]; expressed in yeast", "result": "did not display significant ACAT activity; also recorded: failed to detectably esterify cholesterol or ergosterol"}, {"measurement": "In Vitro Microsomal ACAT activity (cholesterol ester formation rate)", "setting": "[3]; microsomes of transformed yeast SCY059, exogenous cholesterol in Triton WR-1339, three experiments on different preparations", "result": "4 +/- 3 pmol/minute/μg microsomal prot"}]}, {"molecule": "B2", "values": [{"measurement": "In Vitro Microsomal ACAT activity (cholesterol ester formation rate)", "setting": "[3]", "result": "340 +/- 76 pmol/minute/μg microsomal prot"}, {"measurement": "Active site Modification: Minus DEPC (ACAT activity)", "setting": "[3]; no DEPC preincubation, representative experiment in triplicate", "result": "340 +/- 16"}]}]}
